# Experimental data published in PubChem BioAssay (NCI).
#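 48-hour exposure; five concentrations; linearly interpolated endpoints. TGI marks complete inhibition of growth.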
# Assays:
# Experiment in all cases: NCI-60 cell line screen, 48 h
# OVCAR-4 ovarian = tested on: OVCAR-4 ovarian
# DLD-1 colon = tested on: DLD-1 colon
# A549 NSCLC = tested on: A549 NSCLC
# NCI-H226 lung = tested on: NCI-H226 lung
# SN12C renal = tested on: SN12C renal
# KM12 colon = tested on: KM12 colon
# 786-0 renal = tested on: 786-0 renal
# NCI-H522 lung = tested on: NCI-H522 lung
# K-562 leukemia = tested on: K-562 leukemia
# UO-31 renal = tested on: UO-31 renal
# CCRF-CEM leukemia = tested on: CCRF-CEM leukemia
# HCT-15 colon = tested on: HCT-15 colon
# LOX IMVI melanoma = tested on: LOX IMVI melanoma
# EKVX NSCLC = tested on: EKVX NSCLC
# RXF-631 renal = tested on: RXF-631 renal
# M19-MEL melanoma = tested on: M19-MEL melanoma
# MALME-3M melanoma = tested on: MALME-3M melanoma
# OVCAR-3 ovarian = tested on: OVCAR-3 ovarian
# SR leukemia = tested on: SR leukemia
# U251 CNS = tested on: U251 CNS
# SNB-78 CNS = tested on: SNB-78 CNS
# SF-539 CNS = tested on: SF-539 CNS
# SK-MEL-5 melanoma = tested on: SK-MEL-5 melanoma
# SF-295 CNS = tested on: SF-295 CNS
# UACC-257 melanoma = tested on: UACC-257 melanoma
# NCI-H23 lung = tested on: NCI-H23 lung
# HCC-2998 colon = tested on: HCC-2998 colon
# OVCAR-8 ovarian = tested on: OVCAR-8 ovarian
# XF 498 CNS = tested on: XF 498 CNS
# SNB-19 CNS = tested on: SNB-19 CNS
# DMS 114 small cell lung = tested on: DMS 114 small cell lung
# LXFL 529 NSCLC = tested on: LXFL 529 NSCLC
# RXF 393 renal = tested on: RXF 393 renal
# SNB-75 CNS = tested on: SNB-75 CNS
# SK-MEL-28 melanoma = tested on: SK-MEL-28 melanoma
# RPMI-8226 leukemia = tested on: RPMI-8226 leukemia
# OVCAR-5 ovarian = tested on: OVCAR-5 ovarian
# M14 melanoma = tested on: M14 melanoma
# ACHN renal = tested on: ACHN renal
# DMS 273 small cell lung = tested on: DMS 273 small cell lung
# HL-60(TB) leukemia = tested on: HL-60(TB) leukemia
# COLO 205 colon = tested on: COLO 205 colon
# HOP-92 NSCLC = tested on: HOP-92 NSCLC
# UACC-62 melanoma = tested on: UACC-62 melanoma
# IGROV1 ovarian = tested on: IGROV1 ovarian
# HOP-62 NSCLC = tested on: HOP-62 NSCLC
# HT29 colon = tested on: HT29 colon
# NCI-H460 lung = tested on: NCI-H460 lung
# TK-10 renal = tested on: TK-10 renal
# MOLT-4 leukemia = tested on: MOLT-4 leukemia
# SK-MEL-2 melanoma = tested on: SK-MEL-2 melanoma
structure (smiles),measurement,setting,value
CC1(O)C(C)(O)C2(C)O[Te]3(OC12C)OC1(C)C(C)(O)C(C)(O)C1(C)O3 (stereo unspecified),TGI,OVCAR-4 ovarian,77.9 µM
same,TGI,DLD-1 colon,> 100 µM
same,TGI,A549 NSCLC,79 µM
same,TGI,NCI-H226 lung,89.2 µM
same,TGI,SN12C renal,> 100 µM
same,TGI,KM12 colon,> 100 µM
same,TGI,786-0 renal,> 100 µM
same,TGI,NCI-H522 lung,42.2 µM
same,TGI,K-562 leukemia,39 µM
same,TGI,UO-31 renal,87.5 µM
same,TGI,CCRF-CEM leukemia,22.9 µM
same,TGI,HCT-15 colon,34.4 µM
same,TGI,LOX IMVI melanoma,18.9 µM
same,TGI,EKVX NSCLC,> 100 µM
same,TGI,RXF-631 renal,> 100 µM
same,TGI,M19-MEL melanoma,70.8 µM
same,TGI,MALME-3M melanoma,> 100 µM
same,TGI,OVCAR-3 ovarian,41.5 µM
same,TGI,SR leukemia,51.3 µM
same,TGI,U251 CNS,23.8 µM
same,TGI,SNB-78 CNS,> 100 µM
same,TGI,SF-539 CNS,> 100 µM
same,TGI,SK-MEL-5 melanoma,32.7 µM
same,TGI,SF-295 CNS,> 100 µM
same,TGI,UACC-257 melanoma,> 100 µM
same,TGI,NCI-H23 lung,29.7 µM
same,TGI,HCC-2998 colon,> 100 µM
same,TGI,OVCAR-8 ovarian,32 µM
same,TGI,XF 498 CNS,> 100 µM
same,TGI,SNB-19 CNS,> 100 µM
same,TGI,DMS 114 small cell lung,54.4 µM
same,TGI,LXFL 529 NSCLC,31.4 µM
same,TGI,RXF 393 renal,37.6 µM
same,TGI,SNB-75 CNS,> 100 µM
same,TGI,SK-MEL-28 melanoma,38.1 µM
same,TGI,RPMI-8226 leukemia,37.9 µM
same,TGI,OVCAR-5 ovarian,29.4 µM
same,TGI,M14 melanoma,> 100 µM
same,TGI,ACHN renal,> 100 µM
same,TGI,DMS 273 small cell lung,67.3 µM
same,TGI,HL-60(TB) leukemia,31.5 µM
same,TGI,COLO 205 colon,> 100 µM
same,TGI,HOP-92 NSCLC,49.2 µM
same,TGI,UACC-62 melanoma,> 100 µM
same,TGI,IGROV1 ovarian,35.7 µM
same,TGI,HOP-62 NSCLC,> 100 µM
same,TGI,HT29 colon,> 100 µM
same,TGI,NCI-H460 lung,47.9 µM
same,TGI,TK-10 renal,> 100 µM
same,TGI,MOLT-4 leukemia,34.5 µM
same,TGI,SK-MEL-2 melanoma,> 100 µM
